{"source": "patent US20160130278A1", "about": "(TAISHO PHARMACEUTICAL CO., LTD, priority 2013, published 2016)"}
{"molecular_target": "T1, human type 1 glycine transporter (GlyT1) (Homo sapiens, UniProt P48067)", "T1 construct": "T98G cells (glioma cells) expressing human type 1 glycine transporter (GlyT1) were used", "T1 sequence (P48067 1-706)": "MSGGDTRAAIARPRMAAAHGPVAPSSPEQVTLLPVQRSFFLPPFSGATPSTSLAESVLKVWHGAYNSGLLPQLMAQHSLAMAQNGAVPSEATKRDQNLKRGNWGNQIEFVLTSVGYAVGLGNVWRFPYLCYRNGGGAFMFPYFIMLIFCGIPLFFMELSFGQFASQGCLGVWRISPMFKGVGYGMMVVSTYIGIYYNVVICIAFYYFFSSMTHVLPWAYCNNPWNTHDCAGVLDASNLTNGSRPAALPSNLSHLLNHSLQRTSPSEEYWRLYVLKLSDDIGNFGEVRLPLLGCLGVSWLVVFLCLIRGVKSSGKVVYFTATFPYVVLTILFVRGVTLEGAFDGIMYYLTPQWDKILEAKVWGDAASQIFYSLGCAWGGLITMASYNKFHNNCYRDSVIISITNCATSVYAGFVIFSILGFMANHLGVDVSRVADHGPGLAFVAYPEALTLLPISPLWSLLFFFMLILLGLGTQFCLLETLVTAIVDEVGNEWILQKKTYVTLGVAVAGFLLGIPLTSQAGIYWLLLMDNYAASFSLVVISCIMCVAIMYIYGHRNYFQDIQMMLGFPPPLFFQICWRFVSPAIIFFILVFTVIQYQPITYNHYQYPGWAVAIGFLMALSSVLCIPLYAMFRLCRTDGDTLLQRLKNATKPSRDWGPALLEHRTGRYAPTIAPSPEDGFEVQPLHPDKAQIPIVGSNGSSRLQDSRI", "assay": "Glycine uptake inhibition experiment ([3H]glycine uptake)", "type": "cell-based", "conditions": "GlyT1", "summary_of_the_method": "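T98G glioma cells expressing human GlyT1 were pretreated 10 min with compound in HEPES buffer pH 7.4 (0.2% BSA), then incubated with compound plus 250 nM final [3H]glycine for 15 min at room temperature. Intracellular radioactivity was counted after NaOH lysis; 10 μM ALX5407 defined non-specific uptake. IC50 came from 10^−9–10^−5 M curves.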", "units": {"IC50": "nM"}}
{"compound": "O=C(NC(c1cc(Cl)ccn1)[C@]1(O)CC[C@@H](F)CC1)c1cccc(C(F)(F)F)c1Cl", "note": "(single isomer, unassigned) [Compound 331, 2-chloro-N-[(4-chloropyridin-2-yl)(cis-4-fluoro-1-hydroxycyclohexyl)methyl]-3-(trifluoromethyl)benzamide]", "IC50": 88}
{"compound": "O=C(N[C@@H](c1cccc(Cl)c1)[C@]1(O)CC[C@@H](F)CC1)c1cc(C(F)(F)F)ncc1Cl", "note": "[Compound 227, 5-chloro-N-[(S)-(3-chlorophenyl)(cis-4-fluoro-1-hydroxycyclohexyl)methyl]-2-(trifluoromethyl)pyridine-4-carboxamide]", "IC50": 510}
{"compound": "Cc1ccccc1C(=O)NC(c1cccc(F)c1Cl)[C@]1(O)CC[C@@H](F)CC1", "note": "(single isomer, unassigned) [Compound 267, N-[(2-chloro-3-fluorophenyl)(cis-4-fluoro-1-hydroxycyclohexyl)methyl]-2-methylbenzamide]", "IC50": 1900}
{"compound": "CCn1cc(-c2cccc(C(NC(=O)c3cc(Cl)ccc3Cl)C3(O)CCC(F)(F)CC3)c2)cn1", "note": "(single isomer, unassigned) [Compound 194, 2,5-dichloro-N-{(4,4-difluoro-1-hydroxycyclohexyl)[3-(1-ethyl-1H-pyrazol-4-yl)phenyl]methyl}benzamide]", "IC50": 760}
{"compound": "O=C(NC(c1cccc(F)c1Cl)[C@]1(O)CC[C@@H](F)CC1)c1c(Cl)cccc1C(F)(F)F", "note": "(single isomer, unassigned) [Compound 306, 2-chloro-N-[(2-chloro-3-fluorophenyl)(cis-4-fluoro-1-hydroxycyclohexyl)methyl]-6-(trifluoromethyl)benzamide]", "IC50": 670}
{"compound": "O=C(NC(c1ccc(F)cc1)C1(O)CCCC1)c1nccc(C(F)(F)F)c1Cl", "note": "(single isomer, unassigned) [Compound 59, 3-chloro-N-[(4-fluorophenyl)(1-hydroxycyclopentyl)methyl]-4-(trifluoromethyl)pyridine-2-carboxamide]", "IC50": 9500}
{"compound": "O=C(NC(c1cccnc1Cl)[C@]1(O)CC[C@@H](F)CC1)c1cccc(C(F)(F)F)c1Cl", "note": "(single isomer, unassigned) [Compound 322, 2-chloro-N-[(2-chloropyridin-3-yl)(cis-4-fluoro-1-hydroxycyclohexyl)methyl]-3-(trifluoromethyl)benzamide]", "IC50": 350}
{"compound": "O=C(NC(c1cccc(Br)c1)C1(O)CCCC1)c1cccc(C(F)(F)F)c1Cl", "note": "(stereo not drawn) [Compound 2, N-[(3-bromophenyl)(1-hydroxycyclopentyl)methyl]-2-chloro-3-(trifluoromethyl)benzamide]", "IC50": 670}
{"compound": "O=C(NC(c1cccc(F)c1)C1(O)CCCCC1)c1nccc(C(F)(F)F)c1Cl", "note": "(single isomer, unassigned) [Compound 67, 3-chloro-N-[(3-fluorophenyl)(1-hydroxycyclohexyl)methyl]-4-(trifluoromethyl)pyridine-2-carboxamide]", "IC50": 29}
{"compound": "O=C(NC(c1cccc(F)c1)C1(O)CCCC1)c1nccc(C(F)(F)F)c1Cl", "note": "(single isomer, unassigned) [Compound 53, 3-chloro-N-[(3-fluorophenyl)(1-hydroxycyclopentyl)methyl]-4-(trifluoromethyl)pyridine-2-carboxamide]", "IC50": 1500}
{"compound": "O=C(NC(c1ccc(F)c(F)c1F)C1(O)CCC(F)(F)CC1)c1ccnc(C(F)(F)F)c1Cl", "note": "(stereo not drawn) [Compound 171, 3-chloro-N-[(4,4-difluoro-1-hydroxycyclohexyl)(2,3,4-trifluorophenyl)methyl]-2-(trifluoromethyl)pyridine-4-carboxamide]", "IC50": 1100}
{"compound": "O=C(NC(c1ccccc1Cl)[C@]1(O)CC[C@@H](F)CC1)c1nccc(C(F)(F)F)c1Cl", "note": "(single isomer, unassigned) [Compound 210, 3-chloro-N-[(2-chlorophenyl)(cis-4-fluoro-1-hydroxycyclohexyl)methyl]-4-(trifluoromethyl)pyridine-2-carboxamide]", "IC50": 3200}
{"compound": "O=C(NC(c1cc(Cl)ccn1)C1(O)CCC(F)(F)CC1)c1nccc(C(F)(F)F)c1Cl", "note": "(single isomer, unassigned) [Compound 345, 3-chloro-N-[(4-chloropyridin-2-yl)(4,4-difluoro-1-hydroxycyclohexyl)methyl]-4-(trifluoromethyl)pyridine-2-carboxamide]", "IC50": 270}
{"compound": "O=C(NC(c1cccc(-c2cnn(CC(F)(F)F)c2)c1)C1(O)CCC(F)(F)CC1)c1nccc(C(F)(F)F)c1Cl", "note": "(stereo not drawn) [Compound 132, 3-chloro-N-[(4,4-difluoro-1-hydroxycyclohexyl){3-[1-(2,2,2-trifluoroethyl)-1H-pyrazol-4-yl]phenyl}methyl]-4-(trifluoromethyl)pyridine-2-carboxamide]", "IC50": 130}
{"compound": "O=C(NC(c1cc(Cl)ccc1Cl)C1(O)CCC(F)(F)CC1)c1nccc(C(F)(F)F)c1Cl", "note": "(single isomer, unassigned) [Compound 235, 3-chloro-N-[(2,5-dichlorophenyl)(4,4-difluoro-1-hydroxycyclohexyl)methyl]-4-(trifluoromethyl)pyridine-2-carboxamide]", "IC50": 740}
{"compound": "O=C(NC(c1cccc(Cl)c1)[C@]1(O)CC[C@@H](F)CC1)c1ccnc(C(F)(F)F)c1Cl", "note": "(stereo partly drawn) [Compound 163, 3-chloro-N-[(3-chlorophenyl)(cis-4-fluoro-1-hydoxycyclohexyl)methyl]-2-(trifluoromethyl)pyridine-4-carboxamide]", "IC50": 390}
{"compound": "O=C(NC(c1cccc(F)c1Cl)[C@]1(O)CC[C@@H](F)CC1)c1ccccc1C1CC1", "note": "(single isomer, unassigned) [Compound 365, N-[(2-chloro-3-fluorophenyl)(cis-4-fluoro-1-hydroxycyclohexyl)methyl]-2-cyclopropylbenzamide]", "IC50": 2800}
{"compound": "O=C(NC(c1ccnc(Cl)c1)[C@]1(O)CC[C@@H](F)CC1)c1nccc(C(F)(F)F)c1Cl", "note": "(single isomer, unassigned) [Compound 257]", "IC50": 440}
{"compound": "O=C(NC(c1cc(Cl)ccc1Cl)C1(O)CCCC1)c1nccc(C(F)(F)F)c1Cl", "note": "(stereo not drawn) [Compound 108, 3-chloro-N-[(2,5-dichlorophenyl)(1-hydroxycyclopentyl)methyl]-4-(trifluoromethyl)pyridine-2-carboxamide]", "IC50": 68}
{"compound": "O=C(NC(c1cccc(F)c1Cl)[C@]1(O)CC[C@@H](F)CC1)c1cc(Cl)nnc1Cl", "note": "(single isomer, unassigned) [Compound 305, 3,6-dichloro-N-[(2-chloro-3-fluorophenyl)(cis-4-fluoro-1-hydroxycyclohexyl)methyl]pyridazine-4-carboxamide]", "IC50": 1000}
{"compound": "O=C(NC(c1ccc(Cl)nc1)C1(O)CCC(F)(F)CC1)c1nccc(C(F)(F)F)c1Cl", "note": "(single isomer, unassigned) [Compound 277, 3-chloro-N-[(6-chloropyridin-3-yl)(4,4-difluoro-1-hydroxycyclohexyl)methyl]-4-(trifluoromethyl)pyridine-2-carboxamide]", "IC50": 640}
{"compound": "O=C(NC(c1cccc(-c2cccnc2)c1)C1(O)CCCCC1)c1nccc(C(F)(F)F)c1Cl", "note": "(single isomer, unassigned) [Compound 28, 3-chloro-N-{(1-hydroxycyclohexyl)[3-(pyridin-3-yl)phenyl]methyl}-4-(trifluoromethyl)pyridine-2-carboxamide]", "IC50": 20}
{"compound": "O=C(NC(c1cccc(F)c1)C1(O)CCC1)c1nccc(C(F)(F)F)c1Cl", "note": "(stereo not drawn) [Compound 62, 3-chloro-N-[(3-fluorophenyl)(1-hydroxycyclobutyl)methyl]-4-(trifluoromethyl)pyridine-2-carboxamide]", "IC50": 2100}
{"compound": "CCn1cc(-c2cccc(C(NC(=O)c3cc(Cl)ccc3Cl)C3(O)CCC(F)(F)CC3)c2)cn1", "note": "(stereo not drawn) [Compound 127, 2,5-dichloro-N-{(4,4-difluoro-1-hydroxycyclohexyl)[3-(1-ethyl-1H-pyrazol-4-yl)phenyl]methyl}benzamide]", "IC50": 660}
{"compound": "Cc1ccc(Cl)c(C(=O)NC(c2cccc(F)c2Cl)[C@]2(O)CC[C@@H](F)CC2)c1", "note": "(single isomer, unassigned) [Compound 294, 2-chloro-N-[(2-chloro-3-fluorophenyl)(cis-4-fluoro-1-hydroxycyclohexyl)methyl]-5-methylbenzamide]", "IC50": 990}
{"compound": "O=C(NC(c1cccc(Cl)c1)C1(O)CCCC1)c1ccnc(C(F)(F)F)c1Cl", "note": "(single isomer, unassigned) [Compound 185, 3-chloro-N-[(3-chlorophenyl)(1-hydroxycyclopentyl)methyl]-2-(trifluoromethyl)pyridine-4-carboxamide]", "IC50": 140}
{"compound": "O=C(NC(c1cccc(F)c1Cl)[C@]1(O)CC[C@@H](F)CC1)c1c(Cl)nc2ccccn12", "note": "(single isomer, unassigned) [Compound 262, 2-chloro-N-[(2-chloro-3-fluorophenyl)(cis-4-fluoro-1-hydroxycyclohexyl)methyl]imidazo[1,2-a]pyridine-3-carboxamide]", "IC50": 8800}
